# Measured values as given in patent US20170190671A1, “BIS(ARYL)CATECHOL DERIVATIVES AS HERBICIDES” (E I DU PONT DE NEMOURS AND COMPANY, priority 2014, published 2017).
# Tests used:
# Assay type in all cases: in vivo
# corn (Zea mays) [1] = assay: Test A postemergence; conditions: Zea mays, post-emergence, 240 h, 0 to 100 scale; for Corn plant response rating (crop injury, 0 = no effect, 100 = complete kill) at 125 g/ha: 125 g ai/ha; for Corn plant response rating (crop injury, 0 = no effect, 100 = complete kill) at 500 g/ha: 500 g ai/ha
# Summary of the method: (§1)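 Injury scores run from 0, no effect, to 100, complete control, judged by eye against untreated plants roughly 10 days after treatment. Chemicals carried a surfactant in a non-phytotoxic solvent and went onto loam–sand soil preemergence or onto one- to two-leaf seedlings postemergence.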
# [2] = tested on: wheat (Triticum aestivum); assay: Test A postemergence; conditions: Triticum aestivum, post-emergence, 240 h, 0 to 100 scale, read-out: Plant response rating, Wheat; for plant injury at 125 g/ha: 125 g ai/ha; for plant injury at 500 g/ha: 500 g ai/ha
# Summary of the method: as §1
# [3] = tested on: large (Lg) crabgrass (Digitaria sanguinalis); assay: Test A postemergence; conditions: 0 to 100 scale
# Summary of the method: as §1
# [4] = tested on: barnyardgrass (Echinochloa crus-galli); assay: Test A postemergence; conditions: Echinochloa crus-galli, post-emergence, 240 h, 0 to 100 scale, read-out: Plant response rating, Barnyardgrass; for pest or weed control at 125 g/ha: 125 g ai/ha; for pest or weed control at 500 g/ha: 500 g ai/ha
# Summary of the method: as §1
# [5] = tested on: velvetleaf (Abutilon theophrasti); assay: Test A postemergence; conditions: 0 to 100 scale
# Summary of the method: as §1
# [6] = tested on: morningglory (Ipomoea spp.); assay: Test A postemergence; conditions: 0 to 100 scale
# Summary of the method: as §1
# [7] = tested on: giant foxtail (Setaria faberii); assay: Test A postemergence; conditions: Setaria faberi, post-emergence, 240 h, 0 to 100 scale, read-out: Plant response rating, Foxtail, Giant; for pest or weed control at 125 g/ha: 125 g ai/ha; for pest or weed control at 500 g/ha: 500 g ai/ha
# Summary of the method: as §1
# [8] = tested on: pigweed (Amaranthus retroflexus); assay: Test A postemergence; conditions: Amaranthus retroflexus, post-emergence, 240 h, 0 to 100 scale, read-out: Plant response rating, Pigweed; for pest or weed control at 125 g/ha: 125 g ai/ha; for pest or weed control at 500 g/ha: 500 g ai/ha
# Summary of the method: as §1
# rice (Oryza sativa) [9] = assay: Test C flooded paddy; conditions: Flood, scale 0 to 100
# Description: (§2) At time of treatment, test pots were flooded to 3 cm above the soil surface, treated by application of test compounds directly to the paddy water, and then maintained at that water depth for the duration of the test. Treated plants and controls were maintained in a greenhouse for 13 to 15 days, after which time all species were compared to controls and visually evaluated. […] A dash (-) response means no test result.
# [10] = tested on: barnyardgrass (Echinochloa crus-galli); assay: Test C flooded paddy; conditions: Flood, scale 0 to 100
# Description: as §2
# [11] = tested on: sedge, umbrella (small-flower umbrella sedge, Cyperus difformis); assay: Test C flooded paddy; conditions: Flood, scale 0 to 100
# Description: as §2
# [12] = tested on: ducksalad (Heteranthera limosa); assay: Test C flooded paddy; conditions: Flood, scale 0 to 100
# Description: as §2
# rice (Oryza sativa) [13] = assay: Test B flooded paddy; conditions: Oryza sativa, 336 h; 250 g ai/ha, Flood, 13 to 15 days, scale 0 (no effect) to 100 (complete control); read-out: Plant response rating, Rice
# Description: as §2
# [14] = tested on: barnyardgrass (Echinochloa crus-galli); assay: Test B flooded paddy; conditions: Echinochloa crus-galli, 336 h; 250 g ai/ha, Flood, 13 to 15 days, scale 0 (no effect) to 100 (complete control); read-out: Plant response rating, Barnyardgrass
# Description: as §2
# [15] = tested on: sedge, umbrella (small-flower umbrella sedge, Cyperus difformis); assay: Test B flooded paddy; conditions: Cyperus difformis, 336 h; 250 g ai/ha, Flood, 13 to 15 days, scale 0 (no effect) to 100 (complete control); read-out: Plant response rating, Sedge, Umbrella
# Description: as §2
# [16] = tested on: ducksalad (Heteranthera limosa); assay: Test B flooded paddy; conditions: Heteranthera limosa, 336 h; 250 g ai/ha, Flood, 13 to 15 days, scale 0 (no effect) to 100 (complete control); read-out: Plant response rating, Ducksalad
# Description: as §2
# corn (Zea mays) [17] = assay: Test A preemergence; conditions: 0 to 100 scale
# Summary of the method: as §1
# [18] = tested on: wheat (Triticum aestivum); assay: Test A preemergence; conditions: 0 to 100 scale
# Summary of the method: as §1
# [19] = tested on: large (Lg) crabgrass (Digitaria sanguinalis); assay: Test A preemergence; conditions: 0 to 100 scale
# Summary of the method: as §1
# [20] = tested on: barnyardgrass (Echinochloa crus-galli); assay: Test A preemergence; conditions: Echinochloa crus-galli, pre-emergence, 240 h, 0 to 100 scale, read-out: Plant response rating, Barnyardgrass; for pest or weed control at 125 g/ha: 125 g ai/ha; for pest or weed control at 500 g/ha: 500 g ai/ha
# Summary of the method: as §1
# [21] = tested on: velvetleaf (Abutilon theophrasti); assay: Test A preemergence; conditions: 0 to 100 scale
# Summary of the method: as §1
# [22] = tested on: morningglory (Ipomoea spp.); assay: Test A preemergence; conditions: 0 to 100 scale
# Summary of the method: as §1
# [23] = tested on: giant foxtail (Setaria faberii); assay: Test A preemergence; conditions: Setaria faberi, pre-emergence, 240 h, 0 to 100 scale, read-out: Plant response rating, Foxtail, Giant; for pest or weed control at 125 g/ha: 125 g ai/ha; for pest or weed control at 500 g/ha: 500 g ai/ha
# Summary of the method: as §1
# [24] = tested on: pigweed (Amaranthus retroflexus); assay: Test A preemergence; conditions: Amaranthus retroflexus, pre-emergence, 240 h, 0 to 100 scale, read-out: Plant response rating, Pigweed; for pest or weed control at 125 g/ha: 125 g ai/ha; for pest or weed control at 500 g/ha: 500 g ai/ha
# Summary of the method: as §1
structure (smiles),measurement,setting,value
"N#Cc1cccc(Oc2ncc(Br)cn2)c1Oc1ncc(Br)cn1 [Compound 1, 2,3-bis[(5-bromo-2-pyrimidinyl)oxy]benzonitrile]","Corn plant response rating (crop injury, 0 = no effect, 100 = complete kill) at 125 g/ha",corn (Zea mays) [1],30%
same,"Corn plant response rating (crop injury, 0 = no effect, 100 = complete kill) at 500 g/ha",corn (Zea mays) [1],80%
same,plant injury at 125 g/ha,[2],30%
same,plant injury at 500 g/ha,[2],60%
same,"Plant response rating, Crabgrass, Large",[3]; 125 g ai/ha,60
same,"Plant response rating, Crabgrass, Large",[3]; 500 g ai/ha,100
same,pest or weed control at 125 g/ha,[4],70%
same,pest or weed control at 500 g/ha,[4],90%
same,"Plant response rating, Velvetleaf",[5]; 125 g ai/ha,70
same,"Plant response rating, Velvetleaf",[5]; 500 g ai/ha,90
same,"Plant response rating, Morningglory",[6]; 125 g ai/ha,30
same,"Plant response rating, Morningglory",[6]; 500 g ai/ha,30
same,pest or weed control at 125 g/ha,[7],70%
same,pest or weed control at 500 g/ha,[7],90%
same,pest or weed control at 125 g/ha,[8],100%
same,pest or weed control at 500 g/ha,[8],100%
same,"Plant response rating, Rice",rice (Oryza sativa) [9]; 31 g ai/ha,0
same,"Plant response rating, Rice",rice (Oryza sativa) [9]; 62 g ai/ha,0
same,"Plant response rating, Rice",rice (Oryza sativa) [9]; 125 g ai/ha,0
same,"Plant response rating, Rice",rice (Oryza sativa) [9]; 250 g ai/ha,0
same,"Plant response rating, Barnyardgrass",[10]; 31 g ai/ha,0
same,"Plant response rating, Barnyardgrass",[10]; 62 g ai/ha,0
same,"Plant response rating, Barnyardgrass",[10]; 125 g ai/ha,0
same,"Plant response rating, Barnyardgrass",[10]; 250 g ai/ha,0
same,"Plant response rating, Sedge, Umbrella",[11]; 31 g ai/ha,0
same,"Plant response rating, Sedge, Umbrella",[11]; 62 g ai/ha,30
same,"Plant response rating, Sedge, Umbrella",[11]; 125 g ai/ha,65
same,"Plant response rating, Sedge, Umbrella",[11]; 250 g ai/ha,80
same,"Plant response rating, Ducksalad",[12]; 31 g ai/ha,0
same,"Plant response rating, Ducksalad",[12]; 62 g ai/ha,0
same,"Plant response rating, Ducksalad",[12]; 125 g ai/ha,50
same,"Plant response rating, Ducksalad",[12]; 250 g ai/ha,80
same,plant injury at 250 g/ha,rice (Oryza sativa) [13],0%
same,pest or weed control at 250 g/ha,[14],40%
same,pest or weed control at 250 g/ha,[15],95%
same,pest or weed control at 250 g/ha,[16],90%
same,"Plant response rating, Corn",corn (Zea mays) [17]; 125 g ai/ha,20
same,"Plant response rating, Corn",corn (Zea mays) [17]; 500 g ai/ha,60
same,"Plant response rating, Wheat",[18]; 125 g ai/ha,20
same,"Plant response rating, Wheat",[18]; 500 g ai/ha,60
same,"Plant response rating, Crabgrass, Large",[19]; 125 g ai/ha,100
same,"Plant response rating, Crabgrass, Large",[19]; 500 g ai/ha,100
same,pest or weed control at 125 g/ha,[20],70%
same,pest or weed control at 500 g/ha,[20],90%
same,"Plant response rating, Velvetleaf",[21]; 125 g ai/ha,70
same,"Plant response rating, Velvetleaf",[21]; 500 g ai/ha,100
same,"Plant response rating, Morningglory",[22]; 125 g ai/ha,30
same,"Plant response rating, Morningglory",[22]; 500 g ai/ha,100
same,pest or weed control at 125 g/ha,[23],90%
same,pest or weed control at 500 g/ha,[23],100%
same,pest or weed control at 125 g/ha,[24],100%
same,pest or weed control at 500 g/ha,[24],100%
"N#Cc1cccc(Oc2ncc(F)cn2)c1Oc1ncc(F)cn1 [Compound 2, 2,3-bis[(5-fluoro-2-pyrimidinyl)oxy]benzonitrile]","Corn plant response rating (crop injury, 0 = no effect, 100 = complete kill) at 125 g/ha",corn (Zea mays) [1],0%
same,"Corn plant response rating (crop injury, 0 = no effect, 100 = complete kill) at 500 g/ha",corn (Zea mays) [1],90%
same,plant injury at 125 g/ha,[2],20%
same,plant injury at 500 g/ha,[2],90%
same,"Plant response rating, Crabgrass, Large",[3]; 125 g ai/ha,30
same,"Plant response rating, Crabgrass, Large",[3]; 500 g ai/ha,100
same,pest or weed control at 125 g/ha,[4],20%
same,pest or weed control at 500 g/ha,[4],90%
same,"Plant response rating, Velvetleaf",[5]; 125 g ai/ha,70
same,"Plant response rating, Velvetleaf",[5]; 500 g ai/ha,90
same,"Plant response rating, Morningglory",[6]; 125 g ai/ha,60
same,"Plant response rating, Morningglory",[6]; 500 g ai/ha,90
same,pest or weed control at 125 g/ha,[7],40%
same,pest or weed control at 500 g/ha,[7],100%
same,pest or weed control at 125 g/ha,[8],90%
same,pest or weed control at 500 g/ha,[8],100%
same,plant injury at 250 g/ha,rice (Oryza sativa) [13],15%
same,pest or weed control at 250 g/ha,[14],20%
same,pest or weed control at 250 g/ha,[15],60%
same,pest or weed control at 250 g/ha,[16],70%
same,"Plant response rating, Corn",corn (Zea mays) [17]; 125 g ai/ha,20
same,"Plant response rating, Corn",corn (Zea mays) [17]; 500 g ai/ha,60
same,"Plant response rating, Wheat",[18]; 125 g ai/ha,20
same,"Plant response rating, Wheat",[18]; 500 g ai/ha,30
same,"Plant response rating, Crabgrass, Large",[19]; 125 g ai/ha,100
same,"Plant response rating, Crabgrass, Large",[19]; 500 g ai/ha,100
same,pest or weed control at 125 g/ha,[20],20%
same,pest or weed control at 500 g/ha,[20],100%
same,"Plant response rating, Velvetleaf",[21]; 125 g ai/ha,40
same,"Plant response rating, Velvetleaf",[21]; 500 g ai/ha,100
same,"Plant response rating, Morningglory",[22]; 125 g ai/ha,50
same,"Plant response rating, Morningglory",[22]; 500 g ai/ha,100
same,pest or weed control at 125 g/ha,[23],100%
same,pest or weed control at 500 g/ha,[23],100%
same,pest or weed control at 125 g/ha,[24],100%
same,pest or weed control at 500 g/ha,[24],100%
